# Experimental data published in patent publication US20170014375A1, “PHARMACEUTICAL COMPOSITION COMPRISING EFFECTIVE DOSE OF POMIFERIN FOR TREATING CANCERS” (Macau University of Science and Technology, priority 2015, published 2017).
# Tests used:
# [1] = system: drug-resistant HCT-116 p53−/− colon cancer cells; test: Annexin V/PI flow cytometry cell death, HCT-116 p53−/−; type: cell-based; settings: 10 μM pomiferin alone, 24 h, FIGS. 9A & B
# Protocol: Cell death is measured using an annexin V staining kit (BD Biosciences, San Jose, Calif., USA). Briefly, drug-resistant HCT-116 p53−/− deficient colon cancer cells are treated with the 10 μM pomiferin in the presence or absence of 5 mM autophagic inhibitor 3-MA or […] calcium chelator BAPTA/AM for 24 h. Cells are then harvested and analysed by multiparametric flow cytometry using FITC-Annexin V and Propidium iodide staining (BD Biosciences, San Jose, Calif., USA) according to the manufacturer's instructions. Flow cytometry is then carried out using a FACSCalibur flow cytometer (BD Biosciences, San Jose, Calif., USA). Data acquisition and analysis is performed with CellQuest (BD Biosciences, San Jose, Calif., USA). Data are obtained from three independent experiments.
# HeLa cells = test: Cytosolic calcium detection by flow cytometry (Fluo-3); type: cell-based, human; settings: 10 μM, 10 min to 4 h, FIG. 4A
# Protocol: Changes in intracellular free calcium are measured by a fluorescent dye, Fluo-3, as described previously^21. Briefly, HeLa cells are washed twice with MEM medium after pomiferin treatment (10 μM) for various times (10 min, 0.5 h, 1 h, 2 h, 4 h). Then cell suspensions are incubated with 5 μM Fluo-3 at 37° C. for 30 min. Then the cells are washed twice with HBSS. After re-suspended cell samples are subjected to FACS analysis, at least 10,000 events are analyzed.
# [2] = system: Atg7 wild-type (Atg7+/+) mouse embryonic fibroblasts; test: Endogenous autophagic LC3 puncta, Atg7 wild-type MEFs; type: cell-based; settings: 2 μM, FIG. 6A
# Protocol: Endogenous LC3 puncta formation is quantified as previously described^2. In brief, both Atg7 wild-type and deficient mouse embryonic fibroblasts (MEFs) grown on coverslips in a 6-well plate are treated with indicated concentrations of pomiferin. Both Atg7 wild-type and deficient mouse embryonic fibroblasts are then fixed in 4% paraformaldehyde for 20 minutes at room temperature and then rinsed with PBS. After washing with PBS, the cells are then incubated with anti-LC3 (1:200) in TBST (100 mM Tris HCl, pH 7.5, 150 mM NaCl, 0.05% Tween 20 and 5% BSA) overnight at 4. After washing with PBS, the cells are incubated with anti-mouse secondary antibody (TRITC) 1:200 in TBST containing 5% BSA at 37 for 1 hrs in the dark. The coverslips are then mounted with FluorSave™ mounting media (Calbiochem, San Diego, Calif., USA) for fluorescence imaging and localization of LC3 autophagosomes are captured under the API Delta Vision Live-cell Imaging System (Applied Precision Inc., GE Healthcare Company, Washington, USA). To quantify for autophagy, the percentage of cells with punctate TRITC-LC3 fluorescence is calculated by counting the number of the cells with punctate TRITC-LC3 fluorescence in TRITC-positive cells. A minimum of 150 cells from 3 randomly selected fields is scored.
# [3] = system: Bax-Bak wild-type mouse embryonic fibroblasts; test: MTT cytotoxicity assay, Bax-Bak WT MEFs; type: cell-based; settings: Fibroblast, 72 h, 3 days, read-out: Means of IC50
# Protocol: (§1) The test compound of pomiferin is dissolved in DMSO at a final concentration of 100 mmol/L and stored at −20° C. Cytotoxicity is assessed using the 3-(4,5-dimethylthiazol-2-yl)-2,5-diphenyltetrazolium bromide assay as previously described^29. 2500 of caspase wild-type (caspase WT), caspase-3 deficient (caspase 3KO), caspase-7 deficient (caspase 7KO), caspase-3/-7 deficient (caspase 3/7 DKO), caspase-8 deficient (caspase 8KO), Bax-Bak wild-type (Bak-Bak WT) and Bax-Bak double knock out (Bak-Bak DKO) mouse embryonic fibroblasts (MEFs) are seeded on 96-well plates per well. After overnight pre-incubation, the cells are exposed to different concentrations of pomiferin (namely 100, 50, 25, 12.5, 6.25, 3.125, 1.5625, 0.78, 0.39, 0.195, 0.079, 0.039 μmol/L) for 3 days. Subsequently, 10 μL of MTT reagents is added to each well and incubated at 37° C. for 4 hours, followed by the addition of 100 μL solubilization buffer (10% SDS in 0.01 mol/L HCl) and overnight incubation. Absorbance at 585 nm is determined from each well on the following day. The percentage of cell viability is calculated using the following formula: Cell viability (%)=Cells numbertreated/Cells numberDMSO control×100. Data is obtained from three independent experiments.
# [4] = system: caspase-7 deficient (caspase 7KO) mouse embryonic fibroblasts; test: MTT cytotoxicity assay, caspase 7KO MEFs; type: cell-based; settings: Fibroblast, 72 h, 3 days, read-out: Means of IC50
# Protocol: as §1
# [5] = system: MCF-7 (human breast cancer) cells; test: MTT cytotoxicity assay, MCF-7; type: cell-based; settings: MCF7, 72 h, MCF-7 (Breast), 3 days, read-out: Means of IC50
# Protocol: Pomiferin is dissolved in DMSO at a final concentration of 100 mmol/L and stored at −20° C. Cytotoxicity is assessed using the 3-(4,5-dimethylthiazol-2-yl)-2,5-diphenyltetrazolium bromide assay. 4000-8000 HeLa (human cervical cancer), MCF-7 (human breast cancer), HepG2 and Hep3B (human liver cancer), H1299 and A549 (human lung cancer), LNCap (human prostate cancer) and LLC-1 (mouse Lewis lung carcinoma) cells are seeded on 96-well plates per well. After overnight pre-incubation, the cells are exposed to different concentrations of pomiferin ([…]) for 3 days. Subsequently, 10 μL of MTT reagents is added to each well and incubated at 37° C. for 4 hours followed by the addition of 100 μL solubilization buffer (10% SDS in 0.01 mol/L HCl) and overnight incubation. Absorbance at 585 nm is determined from each well the next day. The percentage of cell viability is calculated using the following formula: Cell viability (%)=Cells number treated/Cells number DMSO control×100. Data are obtained from three independent experiments.
# [6] = system: AMPK-mTOR signaling in HeLa cancer cells; test: Western blot of mTOR signaling marker proteins (P-AMPK, P-p70S6K); type: cell-based, human; settings: FIG. 3A
# Protocol: HeLa cancer cells treated with indicated time and concentrations of pomiferin are harvested and lysed in RIPA buffer (Cell Signaling). The cell lysates are then resolved by SDS-PAGE. After electrophoresis, the proteins from SDS-PAGE are transferred to nitrocellulose membrane which is then blocked with 5% non-fat dried milk for 60 minutes. The membrane is then incubated with P-p70S6K, p70S6K, P-AMPK, AMPK and actin primary antibodies (1:1000) in TBST overnight at 4° C. respectively. After that, the membrane is further incubated with HRP-conjugated secondary antibodies for 60 minutes. Finally, protein bands are visualized by using the ECL Western Blotting Detection Reagents (Invitrogen).
smiles,measurement,setting,value
CC(C)=CCc1c2c(c3occ(-c4ccc(O)c(O)c4)c(=O)c3c1O)C=CC(C)(C)O2 [pomiferin],cell death (in words),[1],significantly induced cell death
same,cytosolic calcium level,HeLa cells,increase the cytosolic calcium level in a time dependent manner
same,TRITC-LC3 puncta formation,[2],induce TRITC-LC3 puncta formation
same,IC50,[3],0.44 µM
same,IC50,[4],3.95 µM
same,IC50,[5],19 µM
same,p70S6K phosphorylation (mTOR downstream),[6],concomitant reduction
same,phosphorylation of AMPK,[6],activate the phosphorylation of AMPK in a time dependent manner
